Converted amounts (≈) assume the structure as drawn. “And” between values parts separate entries of the source, which are not always exact repeats. Equal entries are not always repeated.
Tests used:
Test in all cases: ≥ marks a high value that may be exact or a test limit, other limits are often not marked, values filed in µg/mL are converted to µM
[1] = system: Staphylococcus aureus USA 300
[2] = system: Pseudomonas aeruginosa PAO1
[3] = system: Escherichia coli ATCC 25922
[4] = system: Klebsiella pneumoniae ATCC 13883
[5] = system: Escherichia coli JW0013
[6] = system: Staphylococcus epidermidis KCTC 1917
[7] = system: Pseudomonas aeruginosa KCTC 1637
[8] = system: Bacillus subtilis KCTC 3068
[9] = system: Staphylococcus aureus KCTC 1621
[10] = system: Salmonella typhimurium KCTC 1926
[11] = system: Escherichia coli KCTC 1682
[12] = system: Staphylococcus aureus ATCC 25923
[13] = system: Pseudomonas aeruginosa ATCC 27853
[14] = system: Enterococcus faecalis ATCC 29212
[15] = system: Bacillus subtilis ATCC 6633
[16] = system: Escherichia coli UB1005
[17] = system: Staphylococcus epidermidis C621

MIC [5] [µM]	MIC [6] [µM]	MIC [7] [µM]	MIC [8] [µM]	MIC [9] [µM]	MIC [10] [µM]	MIC [11] [µM]	Structure (SMILES)	further results
–	–	–	–	–	–	–	CC[C@H](C)[C@H](NC(=O)[C@H](CCC(N)=O)NC(=O)[C@H](CCC(N)=O)NC(=O)[C@@H](NC(=O)[C@@H](NC(=O)[C@H](CCCN=C(N)N)NC(=O)[C@H](CCCCN)NC(=O)[C@H](Cc1ccccc1)NC(=O)CN)[C@@H](C)CC)C(C)C)C(=O)N[C@@H](CCC(N)=O)C(=O)N[C@@H](CC(=O)O)C(=O)N[C@@H](Cc1ccccc1)C(=O)N[C@@H](CC(C)C)C(=O)N[C@@H](CCCN=C(N)N)C(=O)N[C@@H](CC(N)=O)C(=O)N[C@@H](CC(C)C)C(=O)N[C@H](C(N)=O)C(C)C [GFKRIVQQIQDFLRNLV]	MIC [1]: 6.2 µM and 12.5 µM
–	–	–	–	–	–	–	CC(C)C[C@H](NC(=O)[C@H](C)NC(=O)[C@H](CCCCN)NC(=O)CNC(=O)[C@H](CC(C)C)NC(=O)[C@H](C)NC(=O)[C@H](CCCCN)NC(=O)[C@H](CC(C)C)NC(=O)[C@H](C)NC(=O)[C@H](CO)NC(=O)[C@H](CC(C)C)NC(=O)[C@H](CC(C)C)NC(=O)CN)C(N)=O [GLLSALKALGKAL]	MIC [2]: > 25 µM; MIC [1]: 25 µM (≈ 31.3 µg/mL); MIC [3]: 25 µM (≈ 31.3 µg/mL); MIC [4]: 25 µM (≈ 31.3 µg/mL)
0.3 (≈ 0.624 µg/mL)	–	–	–	–	–	–	CC[C@H](C)[C@H](NC(=O)[C@H](Cc1ccc(O)cc1)NC(=O)[C@@H](NC(=O)[C@@H]1CCCN1C(=O)[C@H](CCCCN)NC(=O)[C@H](CC(N)=O)NC(=O)[C@H](CC(N)=O)NC(=O)CN)C(C)C)C(=O)N1CCC[C@H]1C(=O)N[C@@H](CCC(N)=O)C(=O)N1CCC[C@H]1C(=O)N[C@@H](CCCN=C(N)N)C(=O)N1CCC[C@H]1C(=O)N1CCC[C@H]1C(=O)N[C@@H](Cc1cnc[nH]1)C(=O)N1CCC[C@H]1C(=O)N[C@@H](CCCN=C(N)N)C(=O)N[C@@H](CC(C)C)C(=O)O [GNNKPVYIPQPRPPHPRL]	–
–	8 (≈ 17.6 µg/mL)	4 (≈ 8.82 µg/mL)	4 (≈ 8.82 µg/mL)	4 (≈ 8.82 µg/mL)	2 (≈ 4.41 µg/mL)	8 (≈ 17.6 µg/mL)	CC(C)C[C@H](NC(=O)[C@H](CCCCN)NC(=O)[C@H](CCCCN)NC(=O)[C@H](CC(C)C)NC(=O)[C@H](CC(C)C)NC(=O)[C@H](CCCCN)NC(=O)[C@H](CCCCN)NC(=O)[C@H](CC(C)C)NC(=O)[C@H](CCCCN)NC(=O)[C@H](CCCCN)NC(=O)[C@H](CCCN=C(N)N)NC(=O)[C@H](CC(C)C)NC(=O)[C@H](CCCN=C(N)N)NC(=O)[C@H](CCCCN)NC(=O)[C@H](CC(C)C)NC(=O)[C@H](CCCN=C(N)N)NC(=O)CN)C(=O)N[C@@H](CO)C(N)=O [GRLKRLRKKLKKLLKKLS]	–
–	1 (≈ 2.73 µg/mL)	2 (≈ 5.45 µg/mL)	2 (≈ 5.45 µg/mL)	1 (≈ 2.73 µg/mL)	2 (≈ 5.45 µg/mL)	2 (≈ 5.45 µg/mL)	CC(C)C[C@H](NC(=O)[C@H](Cc1ccc(O)cc1)NC(=O)[C@H](Cc1cnc[nH]1)NC(=O)[C@@H](NC(=O)[C@H](CC(C)C)NC(=O)[C@H](C)NC(=O)[C@H](C)NC(=O)[C@H](CCCCN)NC(=O)[C@H](C)NC(=O)[C@@H](NC(=O)[C@H](Cc1cnc[nH]1)NC(=O)[C@H](CCCCN)NC(=O)CNC(=O)[C@@H](NC(=O)[C@H](Cc1cnc[nH]1)NC(=O)[C@H](C)NC(=O)[C@H](C)NC(=O)[C@H](CCCCN)NC(=O)[C@H](CCCCN)NC(=O)[C@H](Cc1ccccc1)NC(=O)[C@H](Cc1ccccc1)NC(=O)[C@H](CO)NC(=O)CNC(=O)[C@H](Cc1c[nH]c2ccccc12)NC(=O)CN)C(C)C)C(C)C)[C@@H](C)O)C(=O)O [GWGSFFKKAAHVGKHVAKAALTHYL]	–
–	4 (≈ 9.7 µg/mL)	8 (≈ 19.4 µg/mL)	4 (≈ 9.7 µg/mL)	8 (≈ 19.4 µg/mL)	8 (≈ 19.4 µg/mL)	8 (≈ 19.4 µg/mL)	CC[C@H](C)[C@H](N)C(=O)N[C@@H](CC(C)C)C(=O)N[C@@H](CCCCN)C(=O)N[C@@H](CC(C)C)C(=O)N[C@@H](Cc1ccccc1)C(=O)N[C@@H](CCCCN)C(=O)N[C@@H](CCCN=C(N)N)C(=O)N[C@H](C(=O)N[C@H](C(=O)N[C@@H](CCCCN)C(=O)N[C@@H](CCCN=C(N)N)C(=O)N[C@H](C(=O)N[C@@H](CC(C)C)C(=O)N[C@@H](CCCCN)C(=O)N[C@@H](Cc1ccccc1)C(=O)N[C@@H](CC(C)C)C(=O)N[C@@H](CCCN=C(N)N)C(=O)N[C@@H](CCCCN)C(=O)N[C@@H](CC(C)C)C(=O)O)[C@@H](C)CC)C(C)C)[C@@H](C)CC [ILKLFKRIVKRILKFLRKL]	–
–	–	–	–	–	–	–	C[C@H](NC(=O)[C@H](C)NC(=O)[C@H](Cc1c[nH]c2ccccc12)NC(=O)[C@H](C)NC(=O)[C@H](C)NC(=O)[C@H](Cc1c[nH]c2ccccc12)NC(=O)[C@H](C)NC(=O)[C@H](C)NC(=O)[C@H](Cc1c[nH]c2ccccc12)NC(=O)[C@H](C)NC(=O)[C@H](C)NC(=O)[C@H](CCCCN)NC(=O)[C@H](CCCCN)NC(=O)[C@H](CCCCN)NC(=O)[C@H](CCCCN)NC(=O)[C@H](CCCCN)NC(=O)[C@@H](N)CCCCN)C(N)=O [KKKKKKAAWAAWAAWAA]	MIC [12]: 32 µM (≈ 61.2 µg/mL); MIC [13]: 8 µM (≈ 15.3 µg/mL); MIC [14]: > 32 µM; MIC [15]: 4 µM (≈ 7.65 µg/mL); MIC [3]: 8 µM (≈ 15.3 µg/mL); MIC [16]: 1 µM (≈ 1.91 µg/mL); MIC [17]: 8 µM (≈ 15.3 µg/mL)
–	4.07 (≈ 6.25 µg/mL)	4.07 (≈ 6.25 µg/mL)	4.07 (≈ 6.25 µg/mL)	8.14 (≈ 12.5 µg/mL)	4.07 (≈ 6.25 µg/mL)	8.14 (≈ 12.5 µg/mL)	CC[C@H](C)[C@H](NC(=O)[C@H](CCCCN)NC(=O)[C@@H]1CCCN1C(=O)[C@H](CC(C)C)NC(=O)[C@@H](N)CCCCN)C(=O)N[C@@H](Cc1c[nH]c2ccccc12)C(=O)N[C@@H](Cc1c[nH]c2ccccc12)C(=O)N[C@H](C(=O)N[C@@H](CCCCN)C(=O)N[C@H](C(=O)N1CCC[C@H]1C(=O)N[C@@H](CCCCN)C(N)=O)C(C)C)[C@@H](C)CC [KLPKIWWIKVPK]	–
–	8 (≈ 18.1 µg/mL)	8 (≈ 18.1 µg/mL)	4 (≈ 9.06 µg/mL)	4 (≈ 9.06 µg/mL)	4 (≈ 9.06 µg/mL)	8 (≈ 18.1 µg/mL)	CC[C@H](C)[C@H](NC(=O)[C@H](CC(C)C)NC(=O)[C@@H](N)CC(C)C)C(=O)N[C@H](C(=O)N[C@@H](CC(C)C)C(=O)N[C@@H](CCCN=C(N)N)C(=O)N[C@@H](CCCN=C(N)N)C(=O)N[C@@H](CCCN=C(N)N)C(=O)N[C@@H](Cc1c[nH]c2ccccc12)C(=O)N[C@@H](CCCN=C(N)N)C(=O)N[C@@H](CCCCN)C(=O)N[C@@H](CCC(N)=O)C(=O)N[C@@H](C)C(=O)N[C@@H](CCCCN)C(=O)N[C@@H](C)C(=O)N[C@@H](CCCCN)C(=O)N[C@@H](CO)C(=O)N[C@@H](CCCCN)C(N)=O)[C@@H](C)CC [LLIILRRRWRKQAKAKSK]	–
1.98 (≈ 4.8 µg/mL)	–	–	–	–	–	–	CC[C@H](C)[C@H](NC(=O)[C@H](CCCN=C(N)N)NC(=O)[C@H](CCCN=C(N)N)NC(=O)[C@@H]1CCCN1C(=O)[C@@H]1CCCN1C(=O)[C@H](CCCN=C(N)N)NC(=O)[C@@H]1CCCN1C(=O)[C@H](CCCN=C(N)N)NC(=O)[C@@H]1CCCN1C(=O)[C@H](CC(C)C)NC(=O)[C@H](Cc1ccc(O)cc1)NC(=O)[C@@H]1CCCN1C(=O)[C@@H]1CCCN1C(=O)[C@H](CCCCN)NC(=O)[C@H](CC(=O)O)NC(=O)[C@@H](N)CCC(N)=O)C(=O)N[C@@H](Cc1ccc(O)cc1)C(=O)N[C@@H](CC(N)=O)C(=O)N[C@@H](CCCN=C(N)N)C(N)=O [QDKPPYLPRPRPPRRIYNR]	–
0.24 (≈ 0.492 µg/mL)	–	–	–	–	–	–	CC[C@H](C)[C@H](NC(=O)[C@H](CCCN=C(N)N)NC(=O)[C@@H](N)CCCN=C(N)N)C(=O)N[C@@H](CCCCN)C(=O)N1CCC[C@H]1C(=O)N[C@@H](CCCN=C(N)N)C(=O)N1CCC[C@H]1C(=O)N1CCC[C@H]1C(=O)N[C@@H](CCCN=C(N)N)C(=O)N[C@@H](CC(C)C)C(=O)N1CCC[C@H]1C(=O)N[C@@H](CCCN=C(N)N)C(=O)N1CCC[C@H]1C(=O)N[C@@H](CCCN=C(N)N)C(=O)N1CCC[C@H]1C(=O)N[C@@H](CCCN=C(N)N)C(=O)O [RRIKPRPPRLPRPRPR]	–
0.3 (≈ 0.641 µg/mL)	–	–	–	–	–	–	CC[C@H](C)[C@H](NC(=O)[C@H](CCCN=C(N)N)NC(=O)[C@@H](N)CCCN=C(N)N)C(=O)N[C@@H](CCCN=C(N)N)C(=O)N1CCC[C@H]1C(=O)N[C@@H](CCCN=C(N)N)C(=O)N[C@@H](CCCN=C(N)N)C(=O)N1CCC[C@H]1C(=O)N[C@@H](CCCN=C(N)N)C(=O)N[C@@H](CC(C)C)C(=O)N1CCC[C@H]1C(=O)N[C@@H](CCCN=C(N)N)C(=O)N1CCC[C@H]1C(=O)N[C@@H](CCCN=C(N)N)C(=O)N1CCC[C@H]1C(=O)N[C@@H](CCCN=C(N)N)C(=O)O [RRIRPRRPRLPRPRPR]	–
1.94 (≈ 4.8 µg/mL)	–	–	–	–	–	–	CC[C@H](C)[C@H](NC(=O)[C@H](CCCN=C(N)N)NC(=O)[C@H](CCCN=C(N)N)NC(=O)[C@@H]1CCCN1C(=O)[C@@H]1CCCN1C(=O)[C@H](CCCN=C(N)N)NC(=O)[C@H](Cc1c[nH]c2ccccc12)NC(=O)[C@H](CCCN=C(N)N)NC(=O)[C@@H]1CCCN1C(=O)[C@H](CC(C)C)NC(=O)[C@H](Cc1ccc(O)cc1)NC(=O)[C@@H]1CCCN1C(=O)[C@@H]1CCCN1C(=O)[C@H](CCCCN)NC(=O)[C@H](CC(=O)O)NC(=O)[C@@H](N)C(C)C)C(=O)N[C@@H](Cc1ccc(O)cc1)C(=O)N[C@@H](CC(N)=O)C(=O)N[C@@H](CCCN=C(N)N)C(N)=O [VDKPPYLPRWRPPRRIYNR]	–

Source: DBAASP
